Reference: article PMC3528106 (Neurobiology of disease, 2012)
Read-outs that look alike come from different tables or passages of the source.

Columns and labels:
[1] = target: CYP3A4 (Homo sapiens, UniProt P08684); assay: CYP3A4 inhibition in liver cells; format: in vitro ADME; settings: read-out: CYP3A4 IC50; inhibition of cytochrome P450 enzymes in liver cells
[2] = target: HDAC2 (Homo sapiens, UniProt Q92769); assay: HDAC2 inhibition, Fluor-de-Lys fluorescence assay with purified enzyme
[3] = target: CYP2D6 (Homo sapiens, UniProt P10635); assay: CYP2D6 inhibition in liver cells; format: in vitro ADME; settings: read-out: CYP2D6 IC50; inhibition of cytochrome P450 enzymes in liver cells
[4] = test system: STHdhQ111 striatal cells; assay: XTT assay of metabolic activity in STHdhQ111 striatal cells; format: cell-based, mouse; settings: 24 and 48 hrs
[5] = test system: Hct116 cells; assay: Cell proliferation inhibition assay, Hct116; format: cell-based, human; settings: for IC50: read-out: Proliferation inhibition Hct116, IC50, 72h
[6] = test system: class I and class II HDAC enzymes; assay: HDAC subtype selectivity profile from IC50 values; settings: in words
[7] = test system: Vdr and Dhrs4 expression in STHdhQ111 cells; assay: Expression of Vdr and Dhrs4 in STHdhQ111 striatal cells; format: cell-based, mouse
[8] = target: T1, HDAC8 (Homo sapiens, UniProt Q9BY41); assay: HDAC8 inhibition, recombinant enzyme cell-free assay; settings: read-out: IC50 for Class I HDAC enzymes: HDAC8; Table 1
T1 sequence (Q9BY41 1-377): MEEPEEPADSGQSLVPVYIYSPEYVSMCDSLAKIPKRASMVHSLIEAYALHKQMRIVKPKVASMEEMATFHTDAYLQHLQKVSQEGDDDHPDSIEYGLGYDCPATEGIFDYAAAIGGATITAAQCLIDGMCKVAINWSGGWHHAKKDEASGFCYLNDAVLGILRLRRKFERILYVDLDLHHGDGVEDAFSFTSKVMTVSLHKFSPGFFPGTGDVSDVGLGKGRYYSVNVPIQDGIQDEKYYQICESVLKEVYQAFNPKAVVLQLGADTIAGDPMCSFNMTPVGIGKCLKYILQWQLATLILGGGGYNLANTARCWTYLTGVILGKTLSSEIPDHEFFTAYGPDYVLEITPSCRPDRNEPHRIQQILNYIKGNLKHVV

[9] = target: HDAC5 (Homo sapiens, UniProt Q9UQL6); assay: HDAC5 inhibition; settings: read-out: IC50 for Class II HDAC enzymes: HDAC5; Table 1
[10] = test system: HD-related gene expression in striatum, R6/2 transgenic mice; assay: Real-time PCR of HD-related genes in striatum of R6/2 transgenic mice
[11] = target: HDAC4 (Homo sapiens, UniProt P56524); assay: HDAC4 inhibition; settings: read-out: IC50 for Class II HDAC enzymes: HDAC4; Table 1
[12] = test system: IMR90 cells; format: cell-based, human; settings: read-out: Proliferation inhibition IMR90, IC50; 72h
[13] = target: T2, HDAC7 (Homo sapiens, UniProt Q8WUI4); assay: HDAC7 inhibition; settings: read-out: IC50 for Class II HDAC enzymes: HDAC7; Table 1
T2 sequence (Q8WUI4 1-952): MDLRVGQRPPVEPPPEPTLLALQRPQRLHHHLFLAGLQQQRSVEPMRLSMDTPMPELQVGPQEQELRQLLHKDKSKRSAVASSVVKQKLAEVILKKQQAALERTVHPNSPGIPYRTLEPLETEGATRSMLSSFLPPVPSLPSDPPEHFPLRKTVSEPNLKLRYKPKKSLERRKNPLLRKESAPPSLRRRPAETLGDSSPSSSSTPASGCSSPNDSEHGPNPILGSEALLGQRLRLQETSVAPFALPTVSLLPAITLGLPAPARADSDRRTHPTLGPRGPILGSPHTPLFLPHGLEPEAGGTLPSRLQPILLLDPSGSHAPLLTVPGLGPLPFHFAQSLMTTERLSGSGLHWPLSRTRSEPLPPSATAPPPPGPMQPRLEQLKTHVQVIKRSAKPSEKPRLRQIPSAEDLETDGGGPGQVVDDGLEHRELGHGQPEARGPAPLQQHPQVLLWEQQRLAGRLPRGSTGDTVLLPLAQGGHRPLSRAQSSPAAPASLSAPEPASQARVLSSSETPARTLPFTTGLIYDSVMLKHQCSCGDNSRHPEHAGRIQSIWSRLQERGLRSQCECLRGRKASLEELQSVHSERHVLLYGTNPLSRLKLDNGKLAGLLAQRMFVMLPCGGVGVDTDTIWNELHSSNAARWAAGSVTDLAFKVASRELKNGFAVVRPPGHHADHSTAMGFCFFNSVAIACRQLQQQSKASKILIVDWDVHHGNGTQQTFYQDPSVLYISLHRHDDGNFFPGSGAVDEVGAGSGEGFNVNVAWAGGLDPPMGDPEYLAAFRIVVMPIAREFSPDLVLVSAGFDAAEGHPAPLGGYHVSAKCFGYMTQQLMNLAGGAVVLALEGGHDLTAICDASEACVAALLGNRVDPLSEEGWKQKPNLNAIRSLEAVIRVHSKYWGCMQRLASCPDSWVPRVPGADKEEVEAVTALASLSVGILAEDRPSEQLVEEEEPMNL

CYP2D6, sequence (P10635 whole entry): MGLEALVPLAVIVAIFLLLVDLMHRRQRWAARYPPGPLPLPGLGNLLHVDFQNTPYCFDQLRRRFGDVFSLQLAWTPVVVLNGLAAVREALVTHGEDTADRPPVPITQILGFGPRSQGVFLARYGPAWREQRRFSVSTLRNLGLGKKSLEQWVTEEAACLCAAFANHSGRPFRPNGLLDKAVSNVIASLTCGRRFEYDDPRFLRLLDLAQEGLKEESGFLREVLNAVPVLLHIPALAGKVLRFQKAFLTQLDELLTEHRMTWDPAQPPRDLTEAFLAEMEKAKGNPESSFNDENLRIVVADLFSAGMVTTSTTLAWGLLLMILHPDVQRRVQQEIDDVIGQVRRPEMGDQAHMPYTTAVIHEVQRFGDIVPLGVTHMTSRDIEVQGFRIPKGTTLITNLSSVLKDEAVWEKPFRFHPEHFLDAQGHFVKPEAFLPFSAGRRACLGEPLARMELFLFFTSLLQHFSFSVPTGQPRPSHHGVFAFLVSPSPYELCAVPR
CYP3A4, sequence (P08684 whole entry): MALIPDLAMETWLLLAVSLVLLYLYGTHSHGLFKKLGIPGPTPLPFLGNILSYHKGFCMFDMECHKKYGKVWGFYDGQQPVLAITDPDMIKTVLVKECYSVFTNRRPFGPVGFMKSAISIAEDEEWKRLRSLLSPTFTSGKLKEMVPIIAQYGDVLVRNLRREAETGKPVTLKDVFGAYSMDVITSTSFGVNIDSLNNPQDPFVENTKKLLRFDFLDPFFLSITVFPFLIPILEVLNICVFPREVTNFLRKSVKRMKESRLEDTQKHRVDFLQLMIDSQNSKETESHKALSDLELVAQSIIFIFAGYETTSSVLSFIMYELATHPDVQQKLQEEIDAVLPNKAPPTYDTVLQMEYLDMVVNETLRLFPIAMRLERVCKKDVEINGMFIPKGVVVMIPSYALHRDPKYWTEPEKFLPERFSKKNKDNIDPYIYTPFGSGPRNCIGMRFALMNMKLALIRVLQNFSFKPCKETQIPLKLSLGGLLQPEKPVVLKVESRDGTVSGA
HDAC2, sequence (Q92769 whole entry): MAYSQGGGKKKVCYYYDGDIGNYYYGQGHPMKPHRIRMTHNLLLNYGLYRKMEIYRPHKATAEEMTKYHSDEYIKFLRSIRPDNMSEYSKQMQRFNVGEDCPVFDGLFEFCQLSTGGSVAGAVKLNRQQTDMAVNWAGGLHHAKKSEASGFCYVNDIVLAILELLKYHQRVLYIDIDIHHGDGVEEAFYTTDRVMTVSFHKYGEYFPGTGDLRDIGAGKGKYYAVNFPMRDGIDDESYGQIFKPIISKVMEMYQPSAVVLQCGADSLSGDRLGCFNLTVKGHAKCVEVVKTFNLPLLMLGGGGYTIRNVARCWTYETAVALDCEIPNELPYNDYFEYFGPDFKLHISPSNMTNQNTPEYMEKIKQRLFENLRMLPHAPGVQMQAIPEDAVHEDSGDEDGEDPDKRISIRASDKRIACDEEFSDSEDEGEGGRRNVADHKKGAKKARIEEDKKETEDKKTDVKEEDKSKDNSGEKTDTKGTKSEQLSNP
HDAC5, sequence (Q9UQL6 whole entry, species assumed): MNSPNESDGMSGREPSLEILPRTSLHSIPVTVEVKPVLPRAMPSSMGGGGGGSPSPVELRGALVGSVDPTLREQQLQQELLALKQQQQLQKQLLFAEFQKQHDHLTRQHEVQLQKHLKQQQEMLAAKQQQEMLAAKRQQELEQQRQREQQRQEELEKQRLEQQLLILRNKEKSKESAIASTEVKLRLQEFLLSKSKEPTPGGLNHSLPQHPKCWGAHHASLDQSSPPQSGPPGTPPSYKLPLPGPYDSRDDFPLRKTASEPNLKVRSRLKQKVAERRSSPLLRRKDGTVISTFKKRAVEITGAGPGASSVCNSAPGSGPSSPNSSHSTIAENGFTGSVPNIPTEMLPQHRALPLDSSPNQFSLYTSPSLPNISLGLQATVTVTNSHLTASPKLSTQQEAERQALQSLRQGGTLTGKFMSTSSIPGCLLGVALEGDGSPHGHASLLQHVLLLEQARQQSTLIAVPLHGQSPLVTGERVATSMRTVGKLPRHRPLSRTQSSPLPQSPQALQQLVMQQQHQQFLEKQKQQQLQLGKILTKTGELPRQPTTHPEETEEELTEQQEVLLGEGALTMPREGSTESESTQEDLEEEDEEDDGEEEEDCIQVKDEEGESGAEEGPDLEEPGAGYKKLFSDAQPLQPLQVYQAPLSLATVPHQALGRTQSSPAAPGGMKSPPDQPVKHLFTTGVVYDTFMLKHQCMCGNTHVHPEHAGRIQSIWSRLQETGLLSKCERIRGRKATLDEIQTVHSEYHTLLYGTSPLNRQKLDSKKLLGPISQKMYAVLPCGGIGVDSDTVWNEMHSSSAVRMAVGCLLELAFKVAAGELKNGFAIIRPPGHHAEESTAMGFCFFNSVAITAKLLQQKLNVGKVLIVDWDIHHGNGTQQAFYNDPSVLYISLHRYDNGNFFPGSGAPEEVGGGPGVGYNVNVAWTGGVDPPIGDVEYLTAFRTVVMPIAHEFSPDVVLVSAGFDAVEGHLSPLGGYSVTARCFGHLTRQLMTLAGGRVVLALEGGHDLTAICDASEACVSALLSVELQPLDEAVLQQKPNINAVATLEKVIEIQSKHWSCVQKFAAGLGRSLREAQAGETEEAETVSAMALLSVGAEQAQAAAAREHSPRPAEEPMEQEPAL
HDAC4, sequence (P56524 whole entry, species assumed): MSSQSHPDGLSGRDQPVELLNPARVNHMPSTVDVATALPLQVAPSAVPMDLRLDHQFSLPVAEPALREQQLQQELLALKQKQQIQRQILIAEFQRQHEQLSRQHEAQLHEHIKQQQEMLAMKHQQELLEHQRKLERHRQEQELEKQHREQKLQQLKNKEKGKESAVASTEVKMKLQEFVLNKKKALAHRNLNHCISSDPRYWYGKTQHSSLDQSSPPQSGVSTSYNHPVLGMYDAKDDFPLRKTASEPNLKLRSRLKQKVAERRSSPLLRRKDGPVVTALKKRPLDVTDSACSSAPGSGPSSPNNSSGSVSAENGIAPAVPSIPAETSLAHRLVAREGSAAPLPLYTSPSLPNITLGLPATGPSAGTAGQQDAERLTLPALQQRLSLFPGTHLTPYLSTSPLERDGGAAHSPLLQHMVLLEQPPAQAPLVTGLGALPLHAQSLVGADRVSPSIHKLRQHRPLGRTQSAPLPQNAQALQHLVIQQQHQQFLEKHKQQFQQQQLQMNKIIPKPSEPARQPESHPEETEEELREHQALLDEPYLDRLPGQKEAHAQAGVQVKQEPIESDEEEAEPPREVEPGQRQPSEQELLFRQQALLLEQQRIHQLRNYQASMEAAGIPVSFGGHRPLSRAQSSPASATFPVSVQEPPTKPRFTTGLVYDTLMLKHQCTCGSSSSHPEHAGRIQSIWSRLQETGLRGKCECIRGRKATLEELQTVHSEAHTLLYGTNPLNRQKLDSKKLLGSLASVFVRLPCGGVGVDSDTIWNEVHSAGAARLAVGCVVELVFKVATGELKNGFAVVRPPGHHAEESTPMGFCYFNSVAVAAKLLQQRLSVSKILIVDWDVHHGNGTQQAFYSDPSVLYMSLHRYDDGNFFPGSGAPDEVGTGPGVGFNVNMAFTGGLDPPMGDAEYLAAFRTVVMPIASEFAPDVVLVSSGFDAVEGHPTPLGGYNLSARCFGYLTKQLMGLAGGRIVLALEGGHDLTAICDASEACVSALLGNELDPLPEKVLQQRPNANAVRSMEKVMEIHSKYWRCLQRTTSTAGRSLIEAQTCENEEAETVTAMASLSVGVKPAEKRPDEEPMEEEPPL

| IC50 [1] [µM] | IC50 ([2]; read-out: HDAC2 IC50, Table 2) [µM] | IC50 [3] [µM] | EC50 ([5]; read-out: EC50 for inhibition of proliferation of Hct116 cells) [µM] | IC50 [5] [µM] | activity against the class II HDACs, HDAC 4, 5 and 7 [6] | IC50 [8] [µM] | IC50 [9] [µM] | IC50 [11] [µM] | IC50 ([2]; read-out: IC50 for Class I HDAC enzymes: HDAC2, Table 1) [µM] | IC50 [13] [µM] | Structure (SMILES) | improvement of the metabolic deficit of STHdhQ111 cells, in words [4] | reversal of gene expression deficits (Vdr, Dhrs4), in words [7] | reversal of expression of genes relevant to HD, in words ([10]; 150 mg/kg s.c. three days, striatum) | genes whose expression deficits were corrected, of 13 tested ([10]; qRT-PCR) | IC50 [12] [µM] |
| --- | --- | --- | --- | --- | --- | --- | --- | --- | --- | --- | --- | --- | --- | --- | --- | --- |
| 0.11 | 0.07 | > 10 |  |  |  |  |  |  |  |  | Nc1ccc(-c2cccs2)cc1NC(=O)CCCCCCNC(=O)c1cccnc1 [compound 233] |  |  |  |  |  |
| > 10 |  | > 10 | 10 | 10 | essentially no activity |  |  |  |  |  | Cc1ccc(NC(=O)CCCCCC(=O)Nc2ccccc2N)cc1 [4b] | significantly improved the metabolic deficit | effective at reversing gene expression deficits |  |  |  |
|  |  | > 10 |  | 40 |  | 13.2 | > 180 | > 180 | 3 | > 180 | Cc1ccc(C(=O)NCCCCCC(=O)Nc2ccc(F)cc2N)cc1 [compound 136] | significantly improved the metabolic deficit |  | most effective | eight of the 13 genes tested | > 50 |
